Structures are written as SMILES. Numbers after ± are expanded uncertainties.

The nature of this data set: refractive index (Na D-line) (dimensionless). As to conditions: 298.2 K, 101.33 kPa, Liquid.

Turning to `c1ccccc1` [benzene], the refractive index came out at 1.4972 ± 0.0009.
Still for that read-out and setting: to `CCCCCCC` [heptane] belongs 1.385 ± 0.0009.
As to `CCCCCCCCCCCCCCCC` [hexadecane], the refractive index turned out to be 1.4318 ± 0.0009.
Same read-out and setting: to `CCCCCCCC[n+]1ccn(C)c1.COCCOCCOS(=O)(=O)[O-]` [1-methyl-3-octylimidazolium 2-(2-methoxyethoxy)ethyl sulfate] belongs 1.466 ± 0.0009.
`CCCCCCCCOS(=O)(=O)[O-].CCn1cc[n+](C)c1` [1-ethyl-3-methylimidazolium octyl sulfate]: the refractive index (Standard Abbe refractometry) was 1.471 ± 0.0006.

The values above are taken from the NIST ThermoML archive (doi:10.1021/je050494l).
